Source: patent US20110250184A1, “METHODS FOR DETERMINING EFFICACY OF A THERAPEUTIC REGIMEN AGAINST DELETERIOUS EFFECTS OF CYTOTOXIC AGENTS IN HUMAN” (priority 2008, published 2011)
“Also recorded” adds a separate entry of the source.

Columns and labels:
[1] = tested on: human bone marrow cells; experiment: Cytotoxicity to human bone marrow cells (methocult, total colony forming units); assay type: cell-based; conditions: 2 and 24 hours treatment, up to 20 μM; sodium salt
Experimental: FIG. 2. ON 01210.Na is not cytotoxic to human bone marrow cells in vitro. Human bone marrow cells were treated with various concentrations of ON 01210.Na for (A) 2 hrs or (B) 24 hrs. The cells were then plated into methocult medium. Total colony forming units were determined 14 days later.
The ability of ON 01210.Na to protect primary human bone marrow cells from cytotoxic doses of radiation was studied in an in vitro assay. Initially, cytotoxicity studies were performed. Human bone marrow cells isolated from healthy volunteers were treated with increasing concentrations of ON 01210.Na for 2 and 24 hours and plated into methocult.
FIG. 2. ON 01210.Na was not cytotoxic to human bone marrow cells in vitro. Human bone marrow cells were treated with various concentrations of ON 01210.Na for (A) 2 hrs or (B) 24 hrs. The cells were then plated into methocult medium. Total colony forming units were determined 14 days later.

[2] = tested on: bone marrow of irradiated mice; experiment: In vivo radiation protection assay, bone marrow colony forming units of irradiated mice; design: species or system C3H/HEJ mice; conditions: for Differential colony counts, GM / Differential colony counts, Granulocytes / Differential colony counts, Macrophages / Differential colony counts, Total CFU: 500 mg/kg sc -24 h and -15 min
Experimental: (§1) FIG. 4. ON 01210.Na protects the bone marrow of irradiated mice. A. Mice were injected with 500 mg/kg of ON 01210.Na formulated in 1% Polysorbate 80/K-phosphate buffer or vehicle alone by sc injections minus 24 hrs and minus 15 minutes before 5.5 Gy of whole body ionizing radiation treatment. Whole blood was collected on the indicted days and WBC counts were performed following RBC lysis. The data is plotted as the average of three mice per group +/−SEM (N:3×3=9 plates). B. Pictures of representative plates. […] C. White blood cell counts. Whole blood was collected on the indicted days and WBC counts were performed following RBC lysis. The data is plotted as the average of 3 mice per group±SEM (N=3).
(§2) Since survival of animals after radiation exposure depends largely on the protection of the hematopoietic system, the effect of ON 01210.Na treatment on hematopoietic cell survival was investigated using various schedules before radiation exposure. The radioprotection of hematopoietic cells by ON 01210.Na was studied in an in vivo assay using a sub lethal dose of radiation. C3H/HEJ mice were treated with ON 01210.Na following various schedules in order to determine the optimal dose and schedule of ON 01210.Na for maximum protection of the hematopoietic system in mice.
as §1, with “A.” for “FIG. 4. ON 01210.Na protects the bone marrow of irradiated mice. A.”, “group+/−SEM” for “group +/−SEM”, “(N=3). Lineage specific protection was studied by identifying and tabulating three lineages, granulocytes, macrophages and granulocyte-macrophages (GM).” for “(N=3).”
In order to determine the optimal schedule of ON 01210.Na treatment for maximum protection of the bone marrow, bone marrow protection of mice injected with a single dose of ON 01210.Na at minus 15 minutes or minus 4 hours was compared with mice injected with two doses described above. The most efficient protection of the bone marrow was found when the mice were injected at minus 24 hours and minus 15 minutes before radiation exposure. […] These experiments imply that a single injection just before exposure will protect and increase the recovery of bone marrow cells after radiation exposure.

[3] = tested on: mice exposed to lethal doses of whole body ionizing radiation; experiment: In vivo survival studies in mice after lethal whole body radiation (30-day survival model)
Experimental: as §2
In vivo survival studies in mice were designed to explore the effects of dose and schedule on survival, based on the well-established 30-day survival model, establish a dose reduction factor (DRF) for ON 01210.Na, compare two different formulations (suspension vs. solution) of ON 01210.Na; and show protection and recovery benefits of ON 01210.Na to the hematopoietic system and gastrointestinal tract of treated mice.
Two dose reduction factor (DRF) studies determined that the DRF for ON 01210.Na was 1.14 to 1.16.

[4] = tested on: apoptosis-specific signaling events; experiment: Signaling studies, apoptosis-specific signaling after radiation; assay type: cell-based; conditions: treatment prior to radiation exposure
Excerpt: To analyze and investigate the efficacy of a cytotoxic protective drug, biological assays were developed that assisted in determination of the mechanism of action of these drugs at the intracellular level. In the case of ON 01210.Na, certain components of cellular and DNA damage-sensing, repair, and apoptosis pathways were studied in more detail.

For `O=C([O-])c1ccc(/C=C/S(=O)(=O)Cc2ccc(Cl)cc2)cc1.[Na+]` [ON 01210.Na, E-4-Carboxystyryl-4-chlorobenzylsulfone sodium salt], which “cytotoxicity to human bone marrow cells (total colony forming units)” value [1] is on record?
The value was “non cytotoxic; also recorded: not cytotoxic; also recorded: nontoxic”.

And the “Differential colony counts, GM” value ([2]; 5.5 Gy IR, day 4)?
Its value is 8.

And the “Differential colony counts, Granulocytes” value ([2]; 5.5 Gy IR, day 4)?
The value was 9.

What about the “Differential colony counts, Macrophages” value ([2]; 5.5 Gy IR, day 4) of the same molecule?
The value was 4.

What about the “Differential colony counts, Total CFU” value ([2]; 5.5 Gy IR, day 4) of the same molecule?
Its value is 21.

What about the “Differential colony counts, GM” value ([2]; 5.5 Gy IR, day 7) of the same molecule?
Its value is 9.

And the “Differential colony counts, Granulocytes” value ([2]; 5.5 Gy IR, day 7)?
The value was 13.

What about the “Differential colony counts, Macrophages” value ([2]; 5.5 Gy IR, day 7) of the same molecule?
The value was 2.

What about the “Differential colony counts, Total CFU” value ([2]; 5.5 Gy IR, day 7) of the same molecule?
The value was 24.

And the “Differential colony counts, GM” value ([2]; 5.5 Gy IR, day 12)?
The value was 16.

What about the “Differential colony counts, Granulocytes” value ([2]; 5.5 Gy IR, day 12) of the same molecule?
Its value is 16.

What about the “Differential colony counts, Macrophages” value ([2]; 5.5 Gy IR, day 12) of the same molecule?
Its value is 5.

What about the “Differential colony counts, Total CFU” value ([2]; 5.5 Gy IR, day 12) of the same molecule?
Its value is 37.

What about the “Differential colony counts, GM” value ([2]; 5.5 Gy IR, day 18) of the same molecule?
Its value is 72.

And the “Differential colony counts, Granulocytes” value ([2]; 5.5 Gy IR, day 18)?
Its value is 58.

And the “Differential colony counts, Macrophages” value ([2]; 5.5 Gy IR, day 18)?
Its value is 16.

And the “Differential colony counts, Total CFU” value ([2]; 5.5 Gy IR, day 18)?
Its value is 146.

And the “Differential colony counts, GM” value ([2]; No IR, day 4)?
Its value is 111.

And the “Differential colony counts, Granulocytes” value ([2]; No IR, day 4)?
Its value is 27.

What about the “Differential colony counts, Macrophages” value ([2]; No IR, day 4) of the same molecule?
The value was 9.

What about the “Differential colony counts, Total CFU” value ([2]; No IR, day 4) of the same molecule?
The value was 147.

And the “Differential colony counts, GM” value ([2]; No IR, day 7)?
Its value is 120.

And the “Differential colony counts, Granulocytes” value ([2]; No IR, day 7)?
Its value is 18.

What about the “Differential colony counts, Macrophages” value ([2]; No IR, day 7) of the same molecule?
Its value is 5.

And the “Differential colony counts, Total CFU” value ([2]; No IR, day 7)?
Its value is 143.

What about the “Differential colony counts, GM” value ([2]; No IR, day 12) of the same molecule?
Its value is 116.

What about the “Differential colony counts, Granulocytes” value ([2]; No IR, day 12) of the same molecule?
Its value is 64.

What about the “Differential colony counts, Macrophages” value ([2]; No IR, day 12) of the same molecule?
Its value is 14.

And the “Differential colony counts, Total CFU” value ([2]; No IR, day 12)?
The value was 194.

What about the “Differential colony counts, GM” value ([2]; No IR, day 18) of the same molecule?
The value was 119.

What about the “Differential colony counts, Granulocytes” value ([2]; No IR, day 18) of the same molecule?
The value was 39.

What about the “Differential colony counts, Macrophages” value ([2]; No IR, day 18) of the same molecule?
Its value is 39.

And the “Differential colony counts, Total CFU” value ([2]; No IR, day 18)?
Its value is 197.

And the “protection and recovery of the bone marrow” value ([2]; 500 mg/kg sc -24 h and -15 min before 5.5 Gy whole body IR, sodium salt)?
The value was “significantly increased the recovery of the bone marrow; also recorded: significantly protected”.

And the “Percent Colony Forming Units” value ([2]; administration -15 min relative to IR exposure, day 4)?
Its value is 9%.

What about the “Percent Colony Forming Units” value ([2]; administration -15 min relative to IR exposure, day 7) of the same molecule?
The value was 13%.

And the “Percent Colony Forming Units” value ([2]; administration -15 min relative to IR exposure, day 12)?
Its value is 17%.

And the “Percent Colony Forming Units” value ([2]; administration -15 min relative to IR exposure, day 18)?
Its value is 80%.

What about the “Percent Colony Forming Units” value ([2]; administration -4 h relative to IR exposure, day 4) of the same molecule?
The value was 6%.

What about the “Percent Colony Forming Units” value ([2]; administration -4 h relative to IR exposure, day 7) of the same molecule?
Its value is 10%.

And the “Percent Colony Forming Units” value ([2]; administration -4 h relative to IR exposure, day 12)?
Its value is 12%.

What about the “Percent Colony Forming Units” value ([2]; administration -4 h relative to IR exposure, day 18) of the same molecule?
The value was 51%.

What about the “Percent Colony Forming Units” value ([2]; administration -24 h and -15 min relative to IR exposure, day 4) of the same molecule?
The value was 14%.

And the “Percent Colony Forming Units” value ([2]; administration -24 h and -15 min relative to IR exposure, day 7)?
The value was 16%.

And the “Percent Colony Forming Units” value ([2]; administration -24 h and -15 min relative to IR exposure, day 12)?
The value was 25%.

And the “Percent Colony Forming Units” value ([2]; administration -24 h and -15 min relative to IR exposure, day 18)?
The value was 100%.

What about the “macrophage colony number” value ([2]; mice injected without radiation exposure) of the same molecule?
Its value is “slight increase”.

What about the “recovery of bone marrow versus vehicle” value ([2]; single injection 4 hours prior to radiation exposure, sodium salt) of the same molecule?
Its value is “did not show a significant advantage; also recorded: not significantly increased”.

And the “protection against radiation lethality” value ([3]; 50 mg/kg to 500 mg/kg, p<0.05 vs. vehicle)?
The value was “dose-dependent protection”.

And the “protection from LD50/30 whole body radiation dose” value ([3]; 500 mg/kg pretreatment)?
The value was “completely and reproducibly protected”.

And the “mice protected (survival)” value ([3]; double injection, minus 24 hour and minus 15 minutes, prior to lethal ionizing radiation)?
Its value is 100%.

And the “efficacy of solution formulation” value ([3]; same dosing regimen, solution formulation vs suspension)?
Its value is “similarly effective”.

And the “mice protected (survival)” value ([3]; single injection at minus 15 minutes prior to lethal ionizing radiation)?
Its value is 100%.

What about the “level of apoptosis-specific signaling events” value [4] of the same molecule?
Its value is “reduced the level of apoptosis-specific signaling events”.
